Assay in all cases: relative viability (nuclei count vs DMSO), 5 days (fraction); higher = more cells survive
Compound in assay [1]: O=C(Nc1cccc(C(F)(F)F)c1)Nc1cc(S(=O)(=O)NC2CC2)ccc1-c1ccsc1 [AGI-6780] + CC1(C)CCC(c2ccc(Cl)cc2)=C(CN2CCN(c3ccc(C(=O)NS(=O)(=O)c4ccc(N[C@H](CCN5CCOCC5)CSc5ccccc5)c(S(=O)(=O)C(F)(F)F)c4)cc3)CC2)C1 [Navitoclax] (partner 0.5 µM)
The essentials:
(§1)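 Lung cancer cell lines in 1536-well plates got either a single drug or a fixed anchor-drug dose together with five library-drug doses (not always all listed) in √10 steps, by pin tool, on the day after seeding. Nuclei were counted after 5 days, and relative viability is the treated-to-vehicle ratio of nuclei counts. Values are medians of duplicate plates.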

Compound in assay [2]: O=C(Nc1cccc(C(F)(F)F)c1)Nc1cc(S(=O)(=O)NC2CC2)ccc1-c1ccsc1 [AGI-6780] + N=C(N)NC(=N)NCCc1ccccc1 [Phenformin] (partner 250 µM)
The method, boiled down:
as §1

Compound in assay [3]: O=C(Nc1cccc(C(F)(F)F)c1)Nc1cc(S(=O)(=O)NC2CC2)ccc1-c1ccsc1 [AGI-6780] + Nc1nc2[nH]cc(CCc3ccc(C(=O)N[C@@H](CCC(=O)O)C(=O)O)cc3)c2c(=O)[nH]1 [Pemetrexed] (partner 0.2 µM)
The essentials: as §1

Compound in assay [4]: O=C(Nc1cccc(C(F)(F)F)c1)Nc1cc(S(=O)(=O)NC2CC2)ccc1-c1ccsc1 [AGI-6780] + CC(=O)Nc1cccc(-n2c(=O)n(C3CC3)c(=O)c3c(Nc4ccc(I)cc4F)n(C)c(=O)c(C)c32)c1 [Trametinib] (partner 0.02 µM)
The essentials: as §1

The results in this text go back to the supplement of paper PMC10307832.

As to EKVX, the relative viability worked out at 1.02 in assay [1] (first compound 0.08 µM); 0.879 in assay [1] (first compound 0.253 µM); 0.935 in assay [1] (first compound 0.8 µM); 0.717 in assay [1] (first compound 2.53 µM); 0.978 in assay [1] (first compound 8 µM); 0.23 in assay [2] (first compound 0.08 µM). For the same cell line, the relative viability was found to be 0.245 in assay [2] (first compound 0.253 µM); 0.252 in assay [2] (first compound 0.8 µM); 0.25 in assay [2] (first compound 2.53 µM); 0.251 in assay [2] (first compound 8 µM); 0.381 in assay [3] (first compound 0.08 µM); 0.403 in assay [3] (first compound 0.253 µM). For the same cell line, the relative viability was 0.342 in assay [3] (first compound 0.8 µM); 0.388 in assay [3] (first compound 2.53 µM); 0.4 in assay [3] (first compound 8 µM); 0.32 in assay [4] (first compound 0.08 µM); 0.383 in assay [4] (first compound 0.253 µM); 0.392 in assay [4] (first compound 0.8 µM). For the same cell line, the relative viability in assay [4] (first compound 2.53 µM) was determined as 0.386; in assay [4] (first compound 8 µM) it was 0.312.

For the cell line NCI-H1975, the relative viability in assay [1] (first compound 0.08 µM) is 1.15; in assay [1] (first compound 0.253 µM), 1; in assay [1] (first compound 0.8 µM), 1.1; in assay [1] (first compound 2.53 µM), 1.02; in assay [1] (first compound 8 µM), 1.03; in assay [2] (first compound 0.08 µM), 0.437. Further, the relative viability amounted to 0.427 in assay [2] (first compound 0.253 µM); 0.41 in assay [2] (first compound 0.8 µM); 0.395 in assay [2] (first compound 8 µM); 0.313 in assay [3] (first compound 0.08 µM); 0.275 in assay [3] (first compound 0.253 µM); 0.299 in assay [3] (first compound 0.8 µM). Besides, the relative viability in assay [3] (first compound 2.53 µM) was determined as 0.288; in assay [3] (first compound 8 µM), 0.29; in assay [4] (first compound 0.08 µM), 0.369; in assay [4] (first compound 0.253 µM), 0.348; in assay [4] (first compound 0.8 µM) it was 0.29; in assay [4] (first compound 2.53 µM), 0.207. Besides, the relative viability in assay [4] (first compound 8 µM) came out at 0.322.

In the case of SW 1573, the relative viability worked out at 1.21 in assay [1] (first compound 0.08 µM); 1.07 in assay [1] (first compound 0.253 µM); 1.14 in assay [1] (first compound 0.8 µM); 0.973 in assay [1] (first compound 2.53 µM); 1.14 in assay [1] (first compound 8 µM); 0.378 in assay [2] (first compound 0.08 µM). In addition, the relative viability in assay [2] (first compound 0.253 µM) was 0.36; in assay [2] (first compound 0.8 µM) it was 0.567; in assay [2] (first compound 8 µM) it was 0.368; in assay [3] (first compound 0.08 µM) it was 0.866; in assay [3] (first compound 0.253 µM), 0.787; in assay [3] (first compound 0.8 µM) it was 0.921. Moreover, the relative viability in assay [3] (first compound 8 µM) came to 0.874; in assay [4] (first compound 0.08 µM), 0.567; in assay [4] (first compound 0.253 µM), 0.533; in assay [4] (first compound 0.8 µM) it was 0.489; in assay [4] (first compound 8 µM), 0.602.

In the case of LU99A, the relative viability is 0.786 in assay [1] (first compound 0.08 µM); 0.842 in assay [1] (first compound 0.253 µM); 0.823 in assay [1] (first compound 0.8 µM); 0.741 in assay [1] (first compound 2.53 µM); 0.809 in assay [1] (first compound 8 µM); 0.866 in assay [2] (first compound 0.08 µM). Moreover, the relative viability in assay [2] (first compound 0.253 µM) came out at 0.747; in assay [2] (first compound 0.8 µM), 0.815; in assay [2] (first compound 2.53 µM), 0.773; in assay [2] (first compound 8 µM), 0.79; in assay [3] (first compound 0.08 µM), 0.193; in assay [3] (first compound 0.253 µM) it was 0.162. Besides, the relative viability was determined as 0.196 in assay [3] (first compound 0.8 µM); 0.195 in assay [3] (first compound 2.53 µM); 0.163 in assay [3] (first compound 8 µM); 0.547 in assay [4] (first compound 0.08 µM); 0.572 in assay [4] (first compound 0.253 µM); 0.431 in assay [4] (first compound 0.8 µM). Also, the relative viability in assay [4] (first compound 2.53 µM) was found to be 0.44; in assay [4] (first compound 8 µM), 0.534.

As to NCI-H2405, the relative viability in assay [1] (first compound 0.08 µM) was 0.8; in assay [1] (first compound 0.253 µM) it was 0.9; in assay [1] (first compound 0.8 µM) it was 0.725; in assay [1] (first compound 8 µM), 0.836; in assay [2] (first compound 0.08 µM) it was 0.431; in assay [2] (first compound 0.253 µM) it was 0.381. The relative viability amounted to 0.279 in assay [2] (first compound 0.8 µM); 0.339 in assay [2] (first compound 2.53 µM); 0.382 in assay [2] (first compound 8 µM); 1.05 in assay [3] (first compound 0.253 µM); 0.902 in assay [3] (first compound 0.8 µM); 0.975 in assay [3] (first compound 2.53 µM). The relative viability in assay [3] (first compound 8 µM) was determined as 1.05; in assay [4] (first compound 0.253 µM), 0.649; in assay [4] (first compound 0.8 µM), 0.57; in assay [4] (first compound 2.53 µM) it was 0.492; in assay [4] (first compound 8 µM), 0.583.
